Activity calls are given as the source filed them. The calls are words filed in the database; no cut-off is given here.
Columns and labels:
[1] = Antiproliferative activity against HMEC1 cells assessed as decrease in cell viability at 10 to 40 uM within 72 hrs by calcein AM staining-based fluorescence assay; settings: human, hmec-1, 72 h
[2] = test system: HMEC-1; assay: Inhibition of RNA synthesis in human HMEC1 cells assessed as decrease in [3H] Uridine incorporation after 2 hrs by scintillation counting; format: functional, cell-based
[3] = biological target: Misshapen-like kinase 1 (Homo sapiens) (UniProt Q8N4C8); assay: Inhibition of MINK1 assessed as residual activity at 10 uM by radioactivity assay in presence of 50 uM ATP
[4] = test system: SNB-75; assay: Cytotoxicity against human SNB75 cells; format: functional
[5] = test system: KM12; assay: Cytotoxicity against human KM12 cells; format: functional
[6] = test system: EKVX; assay: Cytotoxicity against human EKVX cells; format: functional
[7] = biological target: Serine/threonine-protein kinase PAK 6 (Homo sapiens) (UniProt Q9NQU5); assay: Inhibition of PAK6 assessed as residual activity at 10 uM by radioactivity assay in presence of 20 uM ATP
[8] = test system: MDA-MB-231; assay: Decrease in VEGF expression in human MDA-MB-231 cells at >10 uM after 24 hrs by sandwich ELISA; format: functional, cell-based
[9] = test system: PC-3; assay: Cytotoxicity against human PC3 cells; format: functional
[10] = biological target: Mitogen-activated protein kinase kinase kinase 7 (Homo sapiens) (UniProt O43318); assay: Inhibition of TAK1 assessed as residual activity at 10 uM by radioactivity assay in presence of 5 uM ATP
[11] = test system: UACC-62; assay: Cytotoxicity against human UACC62 cells; format: functional
[12] = biological target: MAP kinase-activated protein kinase 2 (Homo sapiens) (UniProt P49137); assay: Inhibition of MAPKAP-K2 assessed as residual activity at 10 uM by radioactivity assay in presence of 20 uM ATP
[13] = test system: NCI-H23; assay: Cytotoxicity against human NCI-H23 cells; format: functional
[14] = test system: DU-145; assay: Decrease in VEGF expression in human DU145 cells at >10 uM after 24 hrs by sandwich ELISA; format: functional, cell-based
[15] = biological target: Ephrin type-A receptor 2 (Homo sapiens) (UniProt P29317); assay: Inhibition of EPHA2 assessed as residual activity at 10 uM by radioactivity assay in presence of 50 uM ATP
[16] = biological target: Tyrosine-protein kinase Yes (Homo sapiens) (UniProt P07947); assay: Inhibition of YES1 assessed as residual activity at 10 uM by radioactivity assay in presence of 20 uM ATP
[17] = biological target: Ephrin type-B receptor 4 (Homo sapiens) (UniProt P54760); assay: Inhibition of EPH-B4 assessed as residual activity at 10 uM by radioactivity assay in presence of 50 uM ATP
[18] = biological target: Calcium/calmodulin-dependent protein kinase type 1 (Homo sapiens) (UniProt Q14012); assay: Inhibition of CAMK1 assessed as residual activity at 10 uM by radioactivity assay in presence of 50 uM ATP
[19] = test system: K562; assay: Cytotoxicity against human K562 cells; format: functional
[20] = biological target: Proto-oncogene tyrosine-protein kinase Src (Homo sapiens) (UniProt P12931); assay: Inhibition of Src assessed as residual activity at 10 uM by radioactivity assay in presence of 50 uM ATP
[21] = biological target: Glycogen synthase kinase-3 beta (Homo sapiens) (UniProt P49841); assay: Inhibition of GSK3b assessed as residual activity at 10 uM by radioactivity assay in presence of 5 uM ATP
[22] = biological target: Interleukin-1 receptor-associated kinase 4 (Homo sapiens) (UniProt Q9NWZ3); assay: Inhibition of IRAK4 assessed as residual activity at 10 uM by radioactivity assay in presence of 20 uM ATP
[23] = test system: MOLT-4; assay: Cytotoxicity against human MOLT4 cells; format: functional
[24] = test system: OVCAR-8; assay: Cytotoxicity against human OVCAR8 cells; format: functional
[25] = biological target: Serine/threonine-protein kinase N2 (Homo sapiens) (UniProt Q16513); assay: Inhibition of PRK2 assessed as residual activity at 10 uM by radioactivity assay in presence of 5 uM ATP
[26] = test system: A498; assay: Cytotoxicity against human A498 cells; format: functional
[27] = biological target: Mitogen-activated protein kinase kinase kinase 9 (Homo sapiens) (UniProt P80192); assay: Inhibition of MLK1 assessed as residual activity at 10 uM by radioactivity assay in presence of 20 uM ATP
[28] = biological target: Serine/threonine-protein kinase MARK2 (Homo sapiens) (UniProt Q7KZI7); assay: Inhibition of MARK2 assessed as residual activity at 10 uM by radioactivity assay in presence of 20 uM ATP
[29] = biological target: Mitogen-activated protein kinase kinase kinase kinase 2 (Homo sapiens) (UniProt Q12851); assay: Inhibition of GCK assessed as residual activity at 10 uM by radioactivity assay in presence of 20 uM ATP
[30] = Cytotoxicity against human Hs 578T cells; format: functional
[31] = test system: A549; assay: Cytotoxicity against human A549 cells; format: functional
[32] = test system: HOP-62; assay: Cytotoxicity against human HOP62 cells; format: functional
[33] = test system: CCRF-CEM; assay: Cytotoxicity against human CCRF-CEM cells; format: functional
[34] = biological target: Insulin-like growth factor 1 receptor (Homo sapiens) (UniProt P08069); assay: Inhibition of IGF-1R assessed as residual activity at 10 uM by radioactivity assay in presence of 5 uM ATP
[35] = test system: CAKI-1; assay: Cytotoxicity against human Caki1 cells; format: functional
[36] = test system: RPMI-8226; assay: Cytotoxicity against human RPMI8226 cells; format: functional
[37] = biological target: Tyrosine-protein kinase CSK (Homo sapiens) (UniProt P41240); assay: Inhibition of CSK assessed as residual activity at 10 uM by radioactivity assay in presence of 20 uM ATP
[38] = test system: HCT-116; assay: Cytotoxicity against human HCT116 cells; format: functional
[39] = test system: SK-MEL-5; assay: Cytotoxicity against human SK-MEL-5 cells; format: functional
[40] = test system: HUVEC; assay: Antiangiogenic activity against HUVEC cells assessed as inhibition of VEGF-induced cell migration-associated wound closure after 16 hrs by microscopic analysis; format: functional, cell-based; settings: Homo sapiens
[41] = Antiangiogenic activity in VEGF-stimulated HMEC1 assessed as reduction in median length of tube at 40 uM after 16 hrs by photographic analysis; format: functional, Homo sapiens, HMEC-1; design: scale not given: the % may be the effect or the level left
[42] = test system: COLO 205; assay: Cytotoxicity against human COLO205 cells; format: functional
[43] = biological target: Serine/threonine-protein kinase Nek2 (Homo sapiens) (UniProt P51955); assay: Inhibition of NEK2a assessed as residual activity at 10 uM by radioactivity assay in presence of 50 uM ATP
[44] = biological target: Serine/threonine-protein kinase Nek6 (Homo sapiens) (UniProt Q9HC98); assay: Inhibition of NEK6 assessed as residual activity at 10 uM by radioactivity assay in presence of 50 uM ATP
[45] = biological target: Ribosomal protein S6 kinase alpha-1 (Homo sapiens) (UniProt Q15418); assay: Inhibition of RSK1 assessed as residual activity at 10 uM by radioactivity assay in presence of 50 uM ATP
[46] = test system: HT-29; assay: Cytotoxicity against human HT-29 cells; format: functional

Ephrin type-B receptor 4 (Homo sapiens), sequence (P54760 whole entry): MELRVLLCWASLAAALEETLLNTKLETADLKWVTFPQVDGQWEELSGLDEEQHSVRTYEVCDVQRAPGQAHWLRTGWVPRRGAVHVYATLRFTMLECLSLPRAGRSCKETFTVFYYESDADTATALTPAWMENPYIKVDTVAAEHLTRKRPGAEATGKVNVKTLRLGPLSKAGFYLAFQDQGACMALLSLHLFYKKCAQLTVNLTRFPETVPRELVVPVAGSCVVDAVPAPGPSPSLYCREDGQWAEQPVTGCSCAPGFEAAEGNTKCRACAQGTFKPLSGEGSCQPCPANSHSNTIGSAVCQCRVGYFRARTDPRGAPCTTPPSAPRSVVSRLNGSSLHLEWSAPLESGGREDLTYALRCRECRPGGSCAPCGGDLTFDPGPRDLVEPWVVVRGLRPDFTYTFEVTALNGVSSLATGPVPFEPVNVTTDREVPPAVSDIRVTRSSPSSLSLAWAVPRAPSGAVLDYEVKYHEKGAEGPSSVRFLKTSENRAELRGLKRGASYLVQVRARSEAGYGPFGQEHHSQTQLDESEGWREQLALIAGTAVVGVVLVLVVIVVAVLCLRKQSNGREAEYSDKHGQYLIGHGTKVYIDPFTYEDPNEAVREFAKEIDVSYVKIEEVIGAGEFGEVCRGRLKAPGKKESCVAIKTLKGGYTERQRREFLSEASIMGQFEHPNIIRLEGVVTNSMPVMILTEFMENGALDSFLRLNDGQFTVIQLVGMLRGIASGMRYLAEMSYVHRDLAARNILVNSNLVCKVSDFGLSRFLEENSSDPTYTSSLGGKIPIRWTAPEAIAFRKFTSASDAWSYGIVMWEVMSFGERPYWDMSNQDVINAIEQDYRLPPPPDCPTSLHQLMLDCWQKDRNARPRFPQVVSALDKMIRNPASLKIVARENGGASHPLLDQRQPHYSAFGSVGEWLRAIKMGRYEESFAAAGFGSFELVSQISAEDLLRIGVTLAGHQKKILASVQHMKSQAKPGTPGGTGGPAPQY
Mitogen-activated protein kinase kinase kinase kinase 2 (Homo sapiens), sequence (Q12851 whole entry): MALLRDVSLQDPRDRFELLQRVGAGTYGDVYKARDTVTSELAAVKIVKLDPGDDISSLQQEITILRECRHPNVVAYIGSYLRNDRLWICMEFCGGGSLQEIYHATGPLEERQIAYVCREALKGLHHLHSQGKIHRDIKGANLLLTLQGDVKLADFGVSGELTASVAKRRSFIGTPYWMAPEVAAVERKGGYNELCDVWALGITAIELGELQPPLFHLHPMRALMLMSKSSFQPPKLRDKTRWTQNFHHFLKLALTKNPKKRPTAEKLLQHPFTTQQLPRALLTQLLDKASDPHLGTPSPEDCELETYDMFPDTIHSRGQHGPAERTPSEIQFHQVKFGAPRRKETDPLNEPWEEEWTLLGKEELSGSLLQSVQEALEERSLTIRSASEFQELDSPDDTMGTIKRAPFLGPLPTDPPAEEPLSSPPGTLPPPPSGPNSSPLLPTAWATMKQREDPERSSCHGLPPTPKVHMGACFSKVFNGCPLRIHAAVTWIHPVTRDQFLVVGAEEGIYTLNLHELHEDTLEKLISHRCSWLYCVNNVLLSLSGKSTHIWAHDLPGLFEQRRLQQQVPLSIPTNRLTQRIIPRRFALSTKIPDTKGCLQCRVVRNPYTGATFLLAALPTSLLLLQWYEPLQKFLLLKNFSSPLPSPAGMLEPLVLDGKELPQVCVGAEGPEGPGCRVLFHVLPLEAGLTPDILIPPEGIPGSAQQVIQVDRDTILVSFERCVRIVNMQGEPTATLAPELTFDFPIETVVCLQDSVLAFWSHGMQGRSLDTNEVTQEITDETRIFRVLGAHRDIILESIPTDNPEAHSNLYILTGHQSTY
Serine/threonine-protein kinase Nek2 (Homo sapiens), sequence (P51955 whole entry): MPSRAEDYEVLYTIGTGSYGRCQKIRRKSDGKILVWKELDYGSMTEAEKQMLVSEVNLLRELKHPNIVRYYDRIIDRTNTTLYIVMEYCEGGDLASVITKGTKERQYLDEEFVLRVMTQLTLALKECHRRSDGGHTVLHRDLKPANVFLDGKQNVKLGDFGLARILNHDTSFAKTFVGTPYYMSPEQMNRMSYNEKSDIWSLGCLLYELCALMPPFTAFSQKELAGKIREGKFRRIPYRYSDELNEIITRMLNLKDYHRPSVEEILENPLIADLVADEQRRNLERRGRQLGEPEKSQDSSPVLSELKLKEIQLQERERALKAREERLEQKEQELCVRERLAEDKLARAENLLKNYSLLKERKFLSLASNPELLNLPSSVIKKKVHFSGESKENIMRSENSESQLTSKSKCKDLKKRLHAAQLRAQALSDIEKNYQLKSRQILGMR
Serine/threonine-protein kinase MARK2 (Homo sapiens), sequence (Q7KZI7 whole entry): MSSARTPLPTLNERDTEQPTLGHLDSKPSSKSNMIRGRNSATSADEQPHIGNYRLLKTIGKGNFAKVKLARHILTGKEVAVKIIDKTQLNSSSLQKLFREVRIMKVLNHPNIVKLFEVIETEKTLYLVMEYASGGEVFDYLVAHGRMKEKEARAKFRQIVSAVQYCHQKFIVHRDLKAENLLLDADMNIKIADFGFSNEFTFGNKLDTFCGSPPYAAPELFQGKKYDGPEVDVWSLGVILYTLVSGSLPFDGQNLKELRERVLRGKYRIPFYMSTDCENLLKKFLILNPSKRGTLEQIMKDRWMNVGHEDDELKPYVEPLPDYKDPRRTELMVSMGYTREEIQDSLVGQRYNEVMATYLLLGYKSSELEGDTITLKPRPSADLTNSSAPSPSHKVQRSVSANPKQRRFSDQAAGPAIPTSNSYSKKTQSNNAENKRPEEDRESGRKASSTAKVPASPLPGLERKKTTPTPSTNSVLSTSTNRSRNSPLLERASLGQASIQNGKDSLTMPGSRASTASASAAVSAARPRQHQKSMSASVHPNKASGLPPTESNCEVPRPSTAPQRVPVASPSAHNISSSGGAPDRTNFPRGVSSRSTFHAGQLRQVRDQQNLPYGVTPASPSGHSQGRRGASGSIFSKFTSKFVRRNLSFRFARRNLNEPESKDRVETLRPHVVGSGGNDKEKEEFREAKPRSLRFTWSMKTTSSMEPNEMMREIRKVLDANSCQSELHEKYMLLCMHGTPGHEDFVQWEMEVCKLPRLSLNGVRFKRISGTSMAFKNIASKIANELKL
Tyrosine-protein kinase Yes (Homo sapiens), sequence (P07947 2-543 limits assumed): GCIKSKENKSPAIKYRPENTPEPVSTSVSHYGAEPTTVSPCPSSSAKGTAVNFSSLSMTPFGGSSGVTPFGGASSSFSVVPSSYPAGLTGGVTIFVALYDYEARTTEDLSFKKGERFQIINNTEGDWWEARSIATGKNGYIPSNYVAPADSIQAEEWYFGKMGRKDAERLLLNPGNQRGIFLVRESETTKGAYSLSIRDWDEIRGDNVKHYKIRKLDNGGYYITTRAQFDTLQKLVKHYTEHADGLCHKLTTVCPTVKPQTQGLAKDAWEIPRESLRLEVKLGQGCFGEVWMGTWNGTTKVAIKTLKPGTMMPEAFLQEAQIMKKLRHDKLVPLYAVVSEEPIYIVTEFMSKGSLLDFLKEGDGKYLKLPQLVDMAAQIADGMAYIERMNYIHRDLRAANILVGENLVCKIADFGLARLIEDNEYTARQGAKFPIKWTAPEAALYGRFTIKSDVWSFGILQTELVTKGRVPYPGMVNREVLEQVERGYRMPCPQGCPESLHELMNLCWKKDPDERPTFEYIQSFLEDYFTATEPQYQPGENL
MAP kinase-activated protein kinase 2 (Homo sapiens), sequence (P49137 whole entry, looked up): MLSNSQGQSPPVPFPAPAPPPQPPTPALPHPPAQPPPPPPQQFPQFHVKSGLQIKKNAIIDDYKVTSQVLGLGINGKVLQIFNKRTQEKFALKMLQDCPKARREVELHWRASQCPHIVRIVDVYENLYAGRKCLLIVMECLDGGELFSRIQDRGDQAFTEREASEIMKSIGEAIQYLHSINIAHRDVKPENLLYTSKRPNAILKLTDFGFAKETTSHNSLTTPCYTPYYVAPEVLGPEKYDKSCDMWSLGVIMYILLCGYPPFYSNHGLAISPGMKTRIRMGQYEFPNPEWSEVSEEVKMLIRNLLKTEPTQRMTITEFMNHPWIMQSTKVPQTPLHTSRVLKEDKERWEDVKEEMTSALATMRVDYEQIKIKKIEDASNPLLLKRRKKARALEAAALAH
Serine/threonine-protein kinase Nek6 (Homo sapiens), sequence (Q9HC98 whole entry): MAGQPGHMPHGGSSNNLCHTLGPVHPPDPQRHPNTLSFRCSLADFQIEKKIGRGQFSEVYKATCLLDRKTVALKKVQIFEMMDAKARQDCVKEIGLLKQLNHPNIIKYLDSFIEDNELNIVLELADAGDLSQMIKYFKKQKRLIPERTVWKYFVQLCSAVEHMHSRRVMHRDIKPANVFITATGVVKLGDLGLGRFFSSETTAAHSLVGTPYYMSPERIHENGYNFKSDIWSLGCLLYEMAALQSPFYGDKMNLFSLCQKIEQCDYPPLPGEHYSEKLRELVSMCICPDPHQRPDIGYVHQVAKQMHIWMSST
Ribosomal protein S6 kinase alpha-1 (Homo sapiens), sequence (Q15418 whole entry): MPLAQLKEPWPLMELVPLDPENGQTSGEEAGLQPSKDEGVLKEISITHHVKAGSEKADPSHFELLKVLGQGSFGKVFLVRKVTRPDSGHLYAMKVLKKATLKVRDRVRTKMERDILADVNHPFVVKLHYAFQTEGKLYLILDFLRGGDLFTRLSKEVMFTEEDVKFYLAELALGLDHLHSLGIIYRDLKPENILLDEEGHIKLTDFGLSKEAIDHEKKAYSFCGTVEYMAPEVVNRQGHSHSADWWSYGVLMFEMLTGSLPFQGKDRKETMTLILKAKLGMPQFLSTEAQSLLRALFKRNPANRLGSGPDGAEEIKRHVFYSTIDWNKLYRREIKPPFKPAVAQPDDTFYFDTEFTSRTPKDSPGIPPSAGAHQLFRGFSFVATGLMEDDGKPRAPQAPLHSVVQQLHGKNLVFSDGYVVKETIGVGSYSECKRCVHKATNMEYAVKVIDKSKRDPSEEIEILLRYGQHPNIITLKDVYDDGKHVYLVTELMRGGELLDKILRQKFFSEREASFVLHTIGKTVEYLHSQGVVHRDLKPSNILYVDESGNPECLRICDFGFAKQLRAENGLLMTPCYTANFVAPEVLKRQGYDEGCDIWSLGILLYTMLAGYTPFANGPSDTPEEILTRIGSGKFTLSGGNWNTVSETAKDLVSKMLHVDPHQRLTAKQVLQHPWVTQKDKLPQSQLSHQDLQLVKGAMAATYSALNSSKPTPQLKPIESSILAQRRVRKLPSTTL

With `Nc1n[nH]c(N)c1/N=N/c1ccc(O)cc1` the Activity [1] was “Non-toxic”, the IC50 [2] was 20 µM and the Activity [3] was 29%. It also gave a GI50 [4] of 18.5 µM, a GI50 [5] of 17.1 µM and a GI50 [6] of 22 µM. For the same compound, the Activity [7] was 97%, the Activity [8] was “Active” and the GI50 [9] was 20.3 µM. It also gave an Activity [10] of 53%, a GI50 [11] of 11 µM and an Activity [12] of 26%. The GI50 [13] was 19.1 µM, the Activity [14] was “Active” and the Activity [15] was 101%. It also gave an Activity [16] of 79%, an Activity [17] of 99% and an Activity [18] of 81%. For the same compound, the GI50 [19] was 9.2 µM, the Activity [20] was 62% and the Activity [21] was 64%. The Activity [22] was 58%, the GI50 [23] was 13.5 µM and the GI50 [24] was 18 µM. The Activity [25] was 30%, the GI50 [26] was 18.2 µM and the Activity [27] was 39%. For the same compound, the Activity [28] was 79%, the Activity [29] was 20% and the GI50 [30] was 21.8 µM. It also gave a GI50 [31] of 22.5 µM, a GI50 [32] of 31.8 µM and a GI50 [33] of 20 µM. For the same compound, the Activity [34] was 48%, the GI50 [35] was 14.8 µM and the GI50 [36] was 14.4 µM. The Activity [37] was 105%, the GI50 [38] was 18.9 µM and the GI50 [39] was 13.9 µM. For the same compound, the inhibition [40] was “Dose-dependent effect”, the Activity [41] was 50% and the GI50 [42] was 18.9 µM. It also gave an Activity [43] of 106%, an Activity [44] of 114% and an Activity [45] of 93%. The GI50 [46] was 29.7 µM.
